Measurements published in PMC10327353 (Breast Cancer Research : BCR, 2023).

Test: Phase 1 study: safety and tolerability
Format: in vivo
Experimental: The maximum tolerated dose (MTD) of DZD1516 was defined based on safety data and the Bayesian optimal interval (BOIN) design (Additional file 1). The definition of DLT is provided in Additional file 1.
The AE grading was assessed according to the NCI-Common Terminology Criteria for Adverse Events (CTCAE) (version 5.0) and was monitored until 28 days after the last dose.
Eligible patients received single oral dosing of DZD1516 on Cycle 0 Day 1 (C0D1), followed by a 7-day washout. Twice daily oral dosing (bid) of DZD1516 was commenced from C1D1 in a continuous 21-day cycle until disease progression, unacceptable toxicity, or withdrawal of consent. All doses were taken under fed conditions (within 30 minutes after a meal).
Planned dosing consisted of 25, 50, 100, 200, 300, and 400 mg. Each dose escalation cohort will comprise a minimum of three and a maximum of six evaluable patients (except only one patient in the starting dose cohort). The maximum tolerated dose of DZD1516 was defined according to safety data and the Bayesian optimal interval (BOIN) design. Dose escalation/de-escalation rule with target toxicity rate for the MTD is 0.30 with interval of (0.20, 0.33).
DLTs were any adverse event (AE) not clearly attributable to the patient’s disease, including ≥ grade 4 hematological toxicities present for ≥ 4 days, grade 3 thrombocytopenia with bleeding, or grade 4 thrombocytopenia lasting for > 5 days, ≥ grade 3 non-hematological toxicities that is dose-limiting in the judgment of the investigators. Any other toxicity that is greater than that at baseline, is clinically significant or unacceptable, and is judged to be a DLT by the SRC. Exceptions included alopecia of any grade and isolated grade 3 laboratory change without clinical sequelae or clinical significance.
Safety evaluations were conducted at screening, on Day 1, 8, and 15 of Cycle 1, on Day 1 of each subsequent treatment cycle, at the end-of-treatment visit, and clinically indicated. Safety assessments included clinical laboratory measurements (hematology, chemistry, coagulation, and urinalysis), electrocardiogram (ECG), Echocardiogram/MUGA scan, ECOG performance status, vital signs, and physical examinations.

COc1cc(O[C@H]2CCN(C)CC2(F)F)c2c(Nc3ccc(Oc4ccn5ncnc5c4)c(C)c3)ncnc2c1 [DZD1516]
Nervous system disorders, Any Grade (50 mg (N = 4)): 1 (25.0) n (%)
Nervous system disorders, ≥ Grade 3 (50 mg (N = 4)): 0 (0.0) n (%)
Participants with any TEAE, Any Grade (50 mg (N = 4)): 3 (75.0) n (%)
Participants with any TEAE, ≥ Grade 3 (50 mg (N = 4)): 0 (0.0) n (%)
Platelet count decreased, Any Grade (50 mg (N = 4)): 1 (25.0) n (%)
Platelet count decreased, ≥ Grade 3 (50 mg (N = 4)): 0 (0.0) n (%)
Proteinuria, Any Grade (50 mg (N = 4)): 1 (25.0) n (%)
Proteinuria, ≥ Grade 3 (50 mg (N = 4)): 0 (0.0) n (%)
Renal and urinary disorders, Any Grade (50 mg (N = 4)): 1 (25.0) n (%)
Renal and urinary disorders, ≥ Grade 3 (50 mg (N = 4)): 0 (0.0) n (%)
Subjects with any TEAE (50 mg (N = 4)): 3 (75.0) n (%)
Subjects with any drug-related TEAE (50 mg (N = 4)): 3 (75.0) n (%)
Vomiting, Any Grade (50 mg (N = 4)): 0 (0.0) n (%)
Vomiting, ≥ Grade 3 (50 mg (N = 4)): 0 (0.0) n (%)
White blood cell count decreased, Any Grade (50 mg (N = 4)): 1 (25.0) n (%)
White blood cell count decreased, ≥ Grade 3 (50 mg (N = 4)): 0 (0.0) n (%)
Alanine aminotransferase increased, Any Grade (100 mg (N = 4)): 0 (0.0) n (%)
Alanine aminotransferase increased, ≥ Grade 3 (100 mg (N = 4)): 0 (0.0) n (%)
Anemia, Any Grade (100 mg (N = 4)): 1 (25.0) n (%)
Anemia, ≥ Grade 3 (100 mg (N = 4)): 0 (0.0) n (%)
Any TEAE: Grade 3 (100 mg (N = 4)): 1 (25.0) n (%)
Any TEAE: Leading to death (100 mg (N = 4)): 0 (0.0) n (%)
Any TEAE: Leading to dose reduction (100 mg (N = 4)): 0 (0.0) n (%)
Any TEAE: Leading to treatment discontinuation (100 mg (N = 4)): 0 (0.0) n (%)
Any TEAE: Leading to treatment interruption (100 mg (N = 4)): 1 (25.0) n (%)
Any TEAE: SAE (100 mg (N = 4)): 1 (25.0) n (%)
Aspartate aminotransferase increased, Any Grade (100 mg (N = 4)): 0 (0.0) n (%)
Aspartate aminotransferase increased, ≥ Grade 3 (100 mg (N = 4)): 0 (0.0) n (%)
Blood and lymphatic system disorders, Any Grade (100 mg (N = 4)): 1 (25.0) n (%)
Blood and lymphatic system disorders, ≥ Grade 3 (100 mg (N = 4)): 0 (0.0) n (%)
Blood bilirubin increased, Any Grade (100 mg (N = 4)): 0 (0.0) n (%)
Blood bilirubin increased, ≥ Grade 3 (100 mg (N = 4)): 0 (0.0) n (%)
Cardiac disorders, Any Grade (100 mg (N = 4)): 0 (0.0) n (%)
Cardiac disorders, ≥ Grade 3 (100 mg (N = 4)): 0 (0.0) n (%)
Constipation, Any Grade (100 mg (N = 4)): 1 (25.0) n (%)
Constipation, ≥ Grade 3 (100 mg (N = 4)): 0 (0.0) n (%)
Decreased appetite, Any Grade (100 mg (N = 4)): 1 (25.0) n (%)
Decreased appetite, ≥ Grade 3 (100 mg (N = 4)): 0 (0.0) n (%)
Dizziness, Any Grade (100 mg (N = 4)): 1 (25.0) n (%)
Dizziness, ≥ Grade 3 (100 mg (N = 4)): 0 (0.0) n (%)
Drug-related TEAE: Grade 3 (100 mg (N = 4)): 1 (25.0) n (%)
Drug-related TEAE: Leading to death (100 mg (N = 4)): 0 (0.0) n (%)
Drug-related TEAE: Leading to dose reduction (100 mg (N = 4)): 0 (0.0) n (%)
Drug-related TEAE: Leading to treatment discontinuation (100 mg (N = 4)): 0 (0.0) n (%)
Drug-related TEAE: Leading to treatment interruption (100 mg (N = 4)): 1 (25.0) n (%)
Drug-related TEAE: SAE (100 mg (N = 4)): 1 (25.0) n (%)
Fatigue, Any Grade (100 mg (N = 4)): 1 (25.0) n (%)
Fatigue, ≥ Grade 3 (100 mg (N = 4)): 0 (0.0) n (%)
Gastrointestinal disorders, Any Grade (100 mg (N = 4)): 2 (50.0) n (%)
Gastrointestinal disorders, ≥ Grade 3 (100 mg (N = 4)): 1 (25.0) n (%)
General disorders and administration site conditions, Any Grade (100 mg (N = 4)): 1 (25.0) n (%)
General disorders and administration site conditions, ≥ Grade 3 (100 mg (N = 4)): 0 (0.0) n (%)
Headache, Any Grade (100 mg (N = 4)): 2 (50.0) n (%)
Headache, ≥ Grade 3 (100 mg (N = 4)): 0 (0.0) n (%)
Hemoglobin decreased, Any Grade (100 mg (N = 4)): 0 (0.0) n (%)
Hemoglobin decreased, ≥ Grade 3 (100 mg (N = 4)): 0 (0.0) n (%)
Investigations, Any Grade (100 mg (N = 4)): 3 (75.0) n (%)
Investigations, ≥ Grade 3 (100 mg (N = 4)): 1 (25.0) n (%)
Lipase increased, Any Grade (100 mg (N = 4)): 0 (0.0) n (%)
Lipase increased, ≥ Grade 3 (100 mg (N = 4)): 0 (0.0) n (%)
Malaise, Any Grade (100 mg (N = 4)): 0 (0.0) n (%)
Malaise, ≥ Grade 3 (100 mg (N = 4)): 0 (0.0) n (%)
Metabolism and nutrition disorders, Any Grade (100 mg (N = 4)): 3 (75.0) n (%)
Metabolism and nutrition disorders, ≥ Grade 3 (100 mg (N = 4)): 0 (0.0) n (%)
Musculoskeletal and connective tissue disorders, Any Grade (100 mg (N = 4)): 0 (0.0) n (%)
Musculoskeletal and connective tissue disorders, ≥ Grade 3 (100 mg (N = 4)): 0 (0.0) n (%)
Nausea, Any Grade (100 mg (N = 4)): 0 (0.0) n (%)
Nausea, ≥ Grade 3 (100 mg (N = 4)): 0 (0.0) n (%)
Nervous system disorders, Any Grade (100 mg (N = 4)): 3 (75.0) n (%)
Nervous system disorders, ≥ Grade 3 (100 mg (N = 4)): 0 (0.0) n (%)
Participants with any TEAE, Any Grade (100 mg (N = 4)): 4 (100.0) n (%)
Participants with any TEAE, ≥ Grade 3 (100 mg (N = 4)): 1 (25.0) n (%)
Platelet count decreased, Any Grade (100 mg (N = 4)): 1 (25.0) n (%)
Platelet count decreased, ≥ Grade 3 (100 mg (N = 4)): 0 (0.0) n (%)
Proteinuria, Any Grade (100 mg (N = 4)): 0 (0.0) n (%)
Proteinuria, ≥ Grade 3 (100 mg (N = 4)): 0 (0.0) n (%)
Renal and urinary disorders, Any Grade (100 mg (N = 4)): 1 (25.0) n (%)
Renal and urinary disorders, ≥ Grade 3 (100 mg (N = 4)): 0 (0.0) n (%)
Subjects with any TEAE (100 mg (N = 4)): 4 (100.0) n (%)
Subjects with any drug-related TEAE (100 mg (N = 4)): 4 (100.0) n (%)
Vomiting, Any Grade (100 mg (N = 4)): 2 (50.0) n (%)
Vomiting, ≥ Grade 3 (100 mg (N = 4)): 1 (25.0) n (%)
White blood cell count decreased, Any Grade (100 mg (N = 4)): 0 (0.0) n (%)
White blood cell count decreased, ≥ Grade 3 (100 mg (N = 4)): 0 (0.0) n (%)
Alanine aminotransferase increased, Any Grade (200 mg (N = 5)): 0 (0.0) n (%)
Alanine aminotransferase increased, ≥ Grade 3 (200 mg (N = 5)): 0 (0.0) n (%)
Anemia, Any Grade (200 mg (N = 5)): 1 (20.0) n (%)
Anemia, ≥ Grade 3 (200 mg (N = 5)): 0 (0.0) n (%)
Any TEAE: Grade 3 (200 mg (N = 5)): 1 (20.0) n (%)
Any TEAE: Leading to death (200 mg (N = 5)): 0 (0.0) n (%)
Any TEAE: Leading to dose reduction (200 mg (N = 5)): 0 (0.0) n (%)
Any TEAE: Leading to treatment discontinuation (200 mg (N = 5)): 0 (0.0) n (%)
Any TEAE: Leading to treatment interruption (200 mg (N = 5)): 0 (0.0) n (%)
Any TEAE: SAE (200 mg (N = 5)): 0 (0.0) n (%)
Aspartate aminotransferase increased, Any Grade (200 mg (N = 5)): 1 (20.0) n (%)
Aspartate aminotransferase increased, ≥ Grade 3 (200 mg (N = 5)): 0 (0.0) n (%)
Blood and lymphatic system disorders, Any Grade (200 mg (N = 5)): 1 (20.0) n (%)
Blood and lymphatic system disorders, ≥ Grade 3 (200 mg (N = 5)): 0 (0.0) n (%)
Blood bilirubin increased, Any Grade (200 mg (N = 5)): 2 (40.0) n (%)
Blood bilirubin increased, ≥ Grade 3 (200 mg (N = 5)): 0 (0.0) n (%)
Cardiac disorders, Any Grade (200 mg (N = 5)): 1 (20.0) n (%)
Cardiac disorders, ≥ Grade 3 (200 mg (N = 5)): 0 (0.0) n (%)
Constipation, Any Grade (200 mg (N = 5)): 1 (20.0) n (%)
Constipation, ≥ Grade 3 (200 mg (N = 5)): 0 (0.0) n (%)
Decreased appetite, Any Grade (200 mg (N = 5)): 0 (0.0) n (%)
Decreased appetite, ≥ Grade 3 (200 mg (N = 5)): 0 (0.0) n (%)
Dizziness, Any Grade (200 mg (N = 5)): 0 (0.0) n (%)
Dizziness, ≥ Grade 3 (200 mg (N = 5)): 0 (0.0) n (%)
Drug-related TEAE: Grade 3 (200 mg (N = 5)): 1 (20.0) n (%)
Drug-related TEAE: Leading to death (200 mg (N = 5)): 0 (0.0) n (%)
Drug-related TEAE: Leading to dose reduction (200 mg (N = 5)): 0 (0.0) n (%)
Drug-related TEAE: Leading to treatment discontinuation (200 mg (N = 5)): 0 (0.0) n (%)
Drug-related TEAE: Leading to treatment interruption (200 mg (N = 5)): 0 (0.0) n (%)
Drug-related TEAE: SAE (200 mg (N = 5)): 0 (0.0) n (%)
Fatigue, Any Grade (200 mg (N = 5)): 1 (20.0) n (%)
Fatigue, ≥ Grade 3 (200 mg (N = 5)): 0 (0.0) n (%)
Gastrointestinal disorders, Any Grade (200 mg (N = 5)): 3 (60.0) n (%)
Gastrointestinal disorders, ≥ Grade 3 (200 mg (N = 5)): 0 (0.0) n (%)
General disorders and administration site conditions, Any Grade (200 mg (N = 5)): 2 (40.0) n (%)
General disorders and administration site conditions, ≥ Grade 3 (200 mg (N = 5)): 0 (0.0) n (%)
Headache, Any Grade (200 mg (N = 5)): 1 (20.0) n (%)
